2 compounds from patent US10792294B2, “Methods for enhancing mucosal innate immune responses to and/or detection of pathogens using human milk oligosaccharides” (ABBOTT LABORATORIES, priority 2014, dated 2020) can be followed below.

Type in all cases: cell-based, human
In one experiment the test system is TLR3. The experiment in a line: qRT-PCR RNA expression of TLR3 gene in LS174T cells exposed to HMO. The settings on record: 48 hours; for fold change in RNA expression of TLR3 relative to Control: normalized to GUSB, P<0.05. The protocol:
(§1) The ability of HMOs to increase expression of mucosal innate immune receptors and cytokines was tested by exposing LS174T human colorectal cancer cells, which are a model of human intestinal goblet cells, to either of the HMOs, 2′-FL or LNnT. The LS174T cells were obtained from the American Type Culture Collection (ATCC). LS174T cells were maintained in minimum essential medium supplemented with 10% Fetalplex, 1.5 g/L of Na2CO3, 10 ml/L penicillin G-streptomycin solution at 37° C. in 5% CO2. Cells were plated at 0.2×10^5 cells/ml/well in 24-well plates and allowed to attach for 24-30 hours. Solutions containing each HMO were prepared by resuspending lyophilized HMO in cell culture grade water to a 10% solution and filter-sterilizing before diluting to the appropriate level in culture media. A solution free of carbohydrates (i.e., fresh medium alone, Control) was also prepared using the same procedure. After preparation of the HMO-containing solutions, the LS174T cell cultures were rinsed with 1×HBSS and then incubated in 0.5 ml of fresh medium alone (Control) or containing 0.1 mg/mL or 1 mg/mL of 2′-FL (2FL), LNnT (LNnT), fucose (FUCOSE), or lactose (LAC) for 48 hours. Cells were harvested at the end of incubation with 1 ml of TRIzol to obtain RNA samples. RNA expression levels of the genes for the mucosal innate immune receptor proteins TLR3, TLR4, CCR2 and the cytokine IL1B were determined by quantitative reverse transcriptase polymerase chain reaction (qRT-PCR) of RNA samples from the cells. Fold change (Fold induction) in the RNA expression levels of the genes for the receptor proteins and the cytokine was normalized based on the change in GUSB transcript expression. Reported fold changes are the mean+/−[…]. Treatments with statistically significant differences in fold expression (P<0.05) are reported with different letters above the bars.
(In general: Real-time PCR tracks product formation cycle by cycle.)

A further experiment deals with TLR4. The experiment in a line: qRT-PCR RNA expression of TLR4 gene in LS174T cells exposed to HMO. The settings on record: 48 hours; for fold change in RNA expression of TLR4 relative to Control: normalized to GUSB, P<0.05. The protocol: as §1
The subject of the next experiment is CCR2. The experiment can be described thus: qRT-PCR RNA expression of CCR2 gene in LS174T cells exposed to HMO. The settings on record: 48 hours; for fold change in RNA expression of CCR2 relative to Control: normalized to GUSB, P<0.05. The protocol:
as §1

The subject of another experiment is IL1B. The experiment in a line: qRT-PCR RNA expression of cytokine IL1B gene in LS174T cells exposed to HMO. The settings on record: 1 mg/mL, 48 hours, normalized to GUSB, P<0.05. The protocol: The ability of HMOs to increase expression of mucosal innate immune receptors and cytokines was tested by exposing LS174T human colorectal cancer cells, which are a model of human intestinal goblet cells, to either of the HMOs, 2′-FL or LNnT. The LS174T cells were obtained from the American Type Culture Collection (ATCC). LS174T cells were maintained in minimum essential medium supplemented with 10% Fetalplex, 1.5 g/L of Na2CO3, 10 ml/L penicillin G-streptomycin solution at 37° C. in 5% CO2. Cells were plated at 0.2×10^5 cells/ml/well in 24-well plates and allowed to attach for 24-30 hours. Solutions containing each HMO were prepared by resuspending lyophilized HMO in cell culture grade water to a 10% solution and filter-sterilizing before diluting to the appropriate level in culture media. A solution free of carbohydrates (i.e., fresh medium alone, Control) was also prepared using the same procedure. […] RNA expression levels of the genes for the mucosal innate immune receptor proteins TLR3, TLR4, CCR2 and the cytokine IL1B were determined by quantitative reverse transcriptase polymerase chain reaction (qRT-PCR) of RNA samples from the cells. […]

Another experiment deals with MUC2. The experiment in a line: qRT-PCR RNA expression of MUC2 gene in LS174T cells exposed to HMO. The settings on record: 0.1 mg/mL, 48 hours.

In the case of `CC(=O)N[C@H]1[C@H](O[C@H]2[C@@H](O)[C@@H](CO)O[C@@H](O[C@H]3[C@H](O)[C@@H](O)C(O)O[C@@H]3CO)[C@@H]2O)O[C@H](CO)[C@@H](O[C@@H]2O[C@H](CO)[C@H](O)[C@H](O)[C@H]2O)[C@@H]1O` (mixture of isomers) [LNnT, lacto-N-neotetraose], the “fold change in RNA expression of TLR3 relative to Control” value in the experiment with TLR3 (1 mg/mL) was “significant change in expression”. Besides, in the experiment with TLR4 (1 mg/mL), the “fold change in RNA expression of TLR4 relative to Control” value is on record as “significant change in expression”. Besides, the entries for the “fold change in RNA expression of CCR2 relative to Control” value in the experiment on CCR2 (0.1 mg/mL) and in the experiment with CCR2 (1 mg/mL) were “significantly enhanced” and “significant change in expression”, respectively. The “fold change in RNA expression of IL1B relative to Control” value in the experiment with IL1B is on record as “significant change in expression”.

Consider 2′-fucosyllactose [2′-FL], for which, in the experiment with TLR3 (0.1 mg/mL vs 1 mg/mL), the “increase in TLR3 expression, 0.1 mg/mL treatment compared with 1 mg/mL treatment” value is on record as “greater increase in expression in response to the 0.1 mg/mL 2′-FL treatment than the 1 mg/mL 2′-FL treatment”. The “fold change in RNA expression of TLR3 relative to Control” value in the experiment with TLR3 (0.1 mg/mL) and in the experiment with TLR3 (1 mg/mL) was “statistically significant fold change” throughout. In the experiment on TLR4 (0.1 mg/mL vs 1 mg/mL), the “increase in TLR4 expression, 0.1 mg/mL treatment compared with 1 mg/mL treatment” value is “greater increase in expression in response to the 0.1 mg/mL 2′-FL treatment than the 1 mg/mL 2′-FL treatment”. The “fold change in RNA expression of TLR4 relative to Control” value in the experiment on TLR4 (0.1 mg/mL) and in the experiment on TLR4 (1 mg/mL) was “statistically significant fold change” throughout. For the same compound, in the experiment with CCR2 (0.1 mg/mL vs 1 mg/mL), the “increase in CCR2 expression, 0.1 mg/mL treatment compared with 1 mg/mL treatment” value is listed as “greater increase in expression in response to the 0.1 mg/mL 2′-FL treatment than the 1 mg/mL 2′-FL treatment”. Also, the “fold change in RNA expression of CCR2 relative to Control” value with CCR2 (0.1 mg/mL) and in the experiment on CCR2 (1 mg/mL) was “statistically significant fold change” throughout. For the same compound, the “fold change in RNA expression of IL1B relative to Control” value in the experiment with IL1B is on record as “statistically significant fold change”. In the experiment on MUC2, the MUC2 gene expression result is “significant increase”.
